Experimental data taken from patent US20140272041A1, “METHODS OF REDUCING PATHOGENS DURING PROCESSING OR POST-PROCESSING OF BEEF, POULTRY AND OTHER MEAT PRODUCTS” (BIRKO Corporation, priority 2009, published 2014).

Columns and labels:
E. coli ATCC 12435 = test: Log kill / surviving titer in aqueous bacterial suspension, plating on TSA; format: cell-based, Escherichia coli; details: 15 seconds, 74 to 80 degrees F.
Description: The “reaction” (i.e. interaction of antimicrobial agent and the target organism) was initiated by the addition of bacteria to the antimicrobial solution. The reaction was allowed to proceed for the respective time periods listed in Table I (i.e., at least 15 seconds each) and was terminated at the end of that time by adding quench buffer comprising 3.2 M potassium phosphate buffer, pH 7.2. The sample then was evaluated using serial 10-fold dilutions into sterile phosphate buffer as needed to determine, on Tryptic Soy agar (“TSA”), the titer of surviving bacteria. TSA is a medium that allows the growth of most bacteria.
The reduction in the bacterial count is expressed as the “log kill” which is defined as log10 [initial cfu/ml]−log10 [remaining cfu/ml]; where “cfu” refers to “colony forming unit.” All log kills reported herein are positive “base 10.”). Inasmuch as the standard assay mixture contained only ca. 25×10^6 cfu initially (equivalent to 7.398 log) the theoretical maximum kill that can be measured with this assay system is ca. 7.4 log and the practical measuring limit is ca. 6 log. Therefore, high levels of log reduction were monitored by plating reaction mixtures directly (without dilution) onto agar medium. The results are reported in Table I and illustrated in graph format in FIG. 1. […] The tests were replicated with E. coli ATCC 43888, a pathogenic strain of E. coli O157:H7. […]
After incubation for 15 seconds at ambient temperature the reaction was quenched by addition of phosphate buffer and the titer of surviving bacteria was determined by plating on TSA as described in the previous examples. […] The amphoteric and zwitterionic surfactants, which carry a net positive charge under the conditions of the reaction mixture, caused enhancement of the log kill by lactic acid. All anionic surfactants tested caused substantial enhancement of the log kill by lactic acid.

E. coli SAC-2 = test: as above; format: cell-based, Escherichia coli; details: surfactant 0.2% in 2.5% lactic acid, 15 seconds, 74 to 80 degrees F.
Description: In each instance a target sample was employed using approximately 50 micro liters of an SAC-2 culture. E. coli “SAC-2,” was a Gram-negative strain isolated from municipal sewage. The tests were performed at room temperature, i.e., 75 deg. F. […] The results of each test sample were evaluated using a series of 10-fold dilutions as needed to determine, on a standard plating agar (TSA), the titer of bacteria that survived the antimicrobial treatment.
The same procedure was employed as in Example 2, but the only agent added to the target solution was Niaproof 08. No lactic acid was employed.
The mixture was then diluted and plated as previously described.
Increasing amounts of reagent were added to a series of test tubes. […] The bacterial titer of each mixture was determined by preparation and plating of serial dilutions on TSA.
[…] […] The amphoteric and zwitterionic surfactants, which carry a net positive charge under the conditions of the reaction mixture, caused enhancement of the log kill by lactic acid. All anionic surfactants tested caused substantial enhancement of the log kill by lactic acid.

[1] = surfactant 0.2% in 2.5% lactic acid

| Compound | Log Kill (Lactic Acid + Surfactant) (E. coli ATCC 12435; [1]) [log] | Log Kill (Lactic Acid + Surfactant) (E. coli SAC-2) [log] | Log Kill (Lactic Acid + Surfactant) (E. coli ATCC 12435; 0.1% CAPB in 2.5% lactic acid) [log] |
| --- | --- | --- | --- |
| CCCCC(CC)COC(=O)CC(C(=O)OCC(CC)CCCC)S(=O)(=O)[O-].[Na+] (centres unmarked) [Sodium dioctyl sulfosuccinate] | 6.67 | – | – |
| coconut based imidazoline, dicarboxylate, sodium salt [Amphoterge K2] | 2.86 | – | – |
| ethoxylated nonylphenol [T-Det N 9.5] | – | 0.18 | – |
| Polyoxyethylene (20) sorbitan monooleate [Tween 80] | – | 0.18 | – |
| coco amidoalkyl betaine [Norfox CAPB] | – | – | 6.25 |
| CCCCCCCCS(=O)(=O)[O-].[Na+] [Bioterge PAS-8S, sodium octane sulfonate] | 6.31 | – | – |
| phosphate ester of polyoxyalkylated fatty alcohol [Klearfac AA270] | 6.31 | 2.56 | – |
